# Data published in US6322789A, “HLA-restricted hepatitis B virus CTL epitopes” (Epimmune, Inc., priority 1995, dated 2001).
# No end group written: not given here.
# How the values were obtained:
# [1] = tested on: B10.D2 fibroblasts in the presence of NP 148-155 peptide; experiment: CTL immunogenicity of modifications and formulations of PR8-NP 148-155 (Table I); type: in vivo, Balb/c mouse; conditions: in words
# Experimental: Three weeks after immunization splenocytes were removed and stimulated in vitro with the flu 147-155 peptide. CTL activity was assayed one week later using ^51 Cr-labeled B10.D2 fibroblasts as targets. Target cells were tested in the absence of antigen, in the presence of Flu 147-155 peptide or following infection with influenza PR8 virus.
# ^b = CTL immunogenicity of various modifications and formulations of NP
# result obtained from spleen cells derived from a single Balb/c mouse and
# # the effector to target ratio (E:T) required to induce 40% antigen
# specific lysis of ^51 Cr labeled B10D2 target cells in the presence of
# ND148-155 peptide; +++ E:T below 10:1; ++ E + T between 10 + 1 and […]
# [2] = tested on: Jurkat A2-1/Kb target cells; Jy target cells; Jy cells transfected with HBV core; set-up: species or system HLA-A2-1/kb transgenic mice; conditions: mouse, in vivo, sc
# [3] = tested on: Jurkat A2.1/K^b target cells; experiment: CTL lysis after restimulation of splenocytes from mice primed with HBV-loaded spleen cells (Example I); type: cell-based, A2.1/K^b transgenic mice (effector cells); conditions: for representation of CTL epitopes: conclusion of Example I, FIGS. 1 and 2; for CTL lysis of Jurkat A2/K^b target cells: individual peptides, FIG. 1 panels E through H
# [4] = tested on: Jurkat A2.1/K^b target cells; experiment: CTL induction from splenocytes of mice primed subcutaneously with purified HBV in IFA (Example II); type: cell-based, A2.1/K^b transgenic mice (effector cells); conditions: for ability to induce in vitro CTL from splenocytes of HBV-primed mice: FIGS. 3 and 4
# [5] = tested on: Jurkat A2/K^b target cells; experiment: In vivo HBc 18-27-specific CTL priming by CTL and T helper epitopes (Example IV); set-up: species or system HLA-A2.1/K^b transgenic mice; conditions: for magnitude of HBc18-27-specific CTL activity relative to other immunogens: comparison in words; for requirement of prior T helper priming for CTL priming: without previous priming with 875.23 in CFA; for HBc18-27-specific CTL response: 100 μg subcutaneously, transgenic mice
# Experimental: Animals were primed subcutaneously with 100 μg of 875.23 (T helper epitope) in Complete Freund's Adjuvant (CFA) followed 9 days later (subcutaneously) with […]. Splenocytes were removed 3 weeks later, cultured for 6 days in the presence of LPS-blasts that had been incubated with the CTL epitope (875.15), 100 μg for 2 hrs before being washed and added to the culture as a source of antigen presenting cells. The presence of HBc 18-27 (875.15)-specific CTL was determined using a standard 6 hr […] release assay with Jurkat A2.1/K^b cells as targets.
# This example describes experiments which define the relative in vivo HBV-specific CTL priming efficiency of peptides expressing HBV CTL epitopes alone, CTL epitopes mixed with peptides containing T helper epitopes or CTL epitopes physically linked to T helper epitopes.
# Nine days later each of the following peptides were injected subcutaneously into two unprimed and two helper-primed mice, 100 μg/mouse in incomplete Freund's adjuvant (IFA).
# Three weeks after priming with the CTL epitope, splenocytes were in vitro restimulated with LPS blasts coated with HBc 18-27 (coating was achieved by incubating 30×10^6 LPS blasts with 100 μg of HBc18-27 in one ml of medium; after 1-2 hr at 37° C., the cells were washed). After 6 days, effector cells were assayed for lytic activity against ^51 Cr labelled Jurkat A2 /K^b target cells in the presence or absence of HBc18-27.
# ovalbumin-specific CTL = conditions: cited from earlier work
# [6] = listed as linked peptides without spacer
substance,measurement,setting,value
(PAM)2 KSS-ISQAVHAAHAEINE-AAA-TYQRTRALV ({(PAM)2}-KSSISQAVHAAHAEINEAAATYQRTRALV) [Peptide 932.05],comparison of constructs and formulations,[1],superior when injected in saline or Alum compared to all of the other combinations
(PAM)2 KSSISQAVHAAHAEINE-TYQRTRALV ({(PAM)2}-KSSISQAVHAAHAEINETYQRTRALV) [Peptide 932.04],comparison of constructs and formulations,[1],superior when injected in saline or Alum compared to all of the other combinations
Ac-Gln-Tyr-Ile-Lys-Ala-Asn-Ser-Lys-Phe-Ile-Gly-Ile-Thr-Glu-Ala-Ala-Ala-Phe-Leu-Pro-Ser-Asp-Phe-Phe-Pro-Ser-Val-OH (Ac-QYIKANSKFIGITEAAAFLPSDFFPSV-OH) [Peptide 934.02],CTL response specific for HBc 18-27,[2],induction of a CTL response specific for HBc 18-27
Asn-Cys-Thr-Cys-Ile-Pro-Ile-Pro-Ser-Ser-Trp-Ala-Phe-Gly-Lys-Phe-Leu-Trp-Glu-Trp [Peptide 799.08],CTL response and its MHC class I mediation,[3],induces a CTL response which is mediated by at least the MHC class I molecule HLA-A2
same,representation of CTL epitopes,[3],clearly represent CTL epitopes
same,CTL lysis of Jurkat A2/K^b target cells,[3],induced CTL lysis of Jurkat A2 /K^b target cells above background
ISQAVHAAHAEINE-AAA-TYQRTRALV (ISQAVHAAHAEINEAAATYQRTRALV) [Peptide 932.03],comparison of constructs and formulations,[1],"superior to mixing the T helper+CTL (i.e., non-linked) and worked well in IFA, but not well in saline or Alum"
ISQAVHAAHAEINE-TYQRTRALV (ISQAVHAAHAEINETYQRTRALV) [Peptide 932.02],comparison of constructs and formulations,[1],"superior to mixing the T helper+CTL (i.e., non-linked) and worked well in IFA, but not well in saline or Alum"
LSPTVWLSVI [Peptide 884.02],recognition of truncation peptides by CTL raised against the larger peptide,[4],recognized by the CTL raised against the larger epitopes
same,ability to induce in vitro CTL from splenocytes of HBV-primed mice,[4],clearly able to induce in vitro CTL
LSPTVWLSVIWMMWYWGPSL [Peptide 799.10],representation of CTL epitopes,[3],defined as containing CTL epitopes
same,representation of CTL epitopes,[3]; listed as HBenv 349-368,clearly represent CTL epitopes
same,CTL lysis of Jurkat A2/K^b target cells,[3],induced CTL lysis of Jurkat A2 /K^b target cells above background
same,ability to induce in vitro CTL from splenocytes of HBV-primed mice,[4],clearly able to induce in vitro CTL
MGLKFRQLLW [Peptide 883.03],recognition of truncation peptides by CTL raised against the larger peptide,[4],recognized by the CTL raised against the larger epitopes
same,ability to induce in vitro CTL from splenocytes of HBV-primed mice,[4],clearly able to induce in vitro CTL
NMGLKFRQLL [Peptide 883.02],recognition of truncation peptides by CTL raised against the larger peptide,[4],recognized by the CTL raised against the larger epitopes
same,ability to induce in vitro CTL from splenocytes of HBV-primed mice,[4],clearly able to induce in vitro CTL
TPPAYRPPNAPILAAAFLPSDFFPSV-NH2 [Peptide 902.02],magnitude of HBc18-27-specific CTL activity relative to other immunogens,[5],greatest HBc18-27 (875.15)-specific CTL activity was detected
same,magnitude of HBc18-27-specific CTL activity relative to other immunogens,[5]; listed as T helper and CTL HBV peptides were linked by a Ala-Ala-Ala spacer,specific CTL activity greater than induction of specific CTL activity with the linked peptides without spacer
same,magnitude of HBc18-27-specific CTL activity relative to other immunogens,[5]; listed as T helper and CTL epitopes via an alanine-alanine-alanine spacer,specific CTL activity greater than that detected by linking the T helper and CTL determinants alone
same,requirement of prior T helper priming for CTL priming,[5],previous priming of helper T cells was not required
TPPAYRPPNAPILFLPSDFFPSV-NH2 [Peptide 902.01],HBc18-27-specific CTL response,[5],HBc-specific (875.15) CTL activity was detected
same,HBc18-27-specific CTL response,[5]; [6],induce specific CTL priming of animals in all animals studied
same,animals with HBc18-27-specific CTL response,[5]; 100 μg/mouse in IFA subcutaneously,100%
same,magnitude of HBc18-27-specific CTL activity relative to other immunogens,[5]; listed as T helper epitope linked to the CTL epitope,greater than that detected when the epitopes were administered non-linked
same,magnitude of HBc18-27-specific CTL activity relative to other immunogens,[5]; [6],at levels which were greater than when the CTL peptide and T helper peptide were administered unlinked
same,requirement of prior T helper priming for CTL priming,[5],previous priming of helper T cells was not required
Thr-Asn-Met-Gly-Leu-Lys-Phe-Arg-Gln-Leu-Leu-Trp-Phe-His-Ile-Ser-Cys-Leu-Thr-Phe [Peptide 802.03],CTL response and its MHC class I mediation,[3],induces a CTL response which is mediated by at least the MHC class I molecule HLA-A2.1
same,representation of CTL epitopes,[3],defined as containing CTL epitopes
same,representation of CTL epitopes,[3]; listed as HBc 91-110,clearly represent CTL epitopes
same,CTL lysis of Jurkat A2/K^b target cells,[3],induced CTL lysis of Jurkat A2 /K^b target cells above background
same,ability to induce in vitro CTL from splenocytes of HBV-primed mice,[4],clearly able to induce in vitro CTL
Thr-Pro-Pro-Ala-Tyr-Arg-Pro-Pro-Asn-Ala-Pro-Ile-Leu (TPPAYRPPNAPIL) [Peptide 875.23],HBc18-27-specific CTL response,[5],no HBc18-27-specific CTL response is detected
same,HBc18-27-specific CTL response,[5]; listed as T helper peptide,did not induce HBc-specific CTL
ovalbumin: ovalbumin (OVA) in IFA,generation of CTL,ovalbumin-specific CTL; i.v. or i.p.,generally does not lead to the generation of CTL
same,ovalbumin-specific CTL response,ovalbumin-specific CTL; in IFA subcutaneously,induces an ovalbumin-specific CTL response in mice
